Laboratory results: ChEMBL document CHEMBL1201862, “PubChem BioAssay data set” (2004)
Calls of active or inactive are those of the source.

Tests used:
[1] = Luminescence Cell-Based Dose Confirmation HTS to Identify Activators of 5'UTR Stem-Loop Driven Alpha-Synuclein mRNA Translation in H4 Neuroglioblastoma Cells. [Related pubchem assays: 1829 (Project Summary), 1814 (Primary HTS)]; type: functional
[2] = Luminescence Cell-Based Dose Response HTS to Identify Activators of Luciferase Translation or Activity in H4 […] Cells. [Related pubchem assays: 1829 (Project Summary), 1814 (Primary HTS)]; type: functional
[3] = test system: H4; assay: Luminescence Cell-Based Dose Response HTS to Identify Activators of 5'UTR Stem-Loop Driven Prion Protein mRNA Translation in H4 Neuroglioblastoma Cells. [Related pubchem assays: 1829 (Project Summary), 1814 (Primary HTS)]; type: functional; settings: Homo sapiens
[4] = molecular target: Nonstructural protein 1 (Influenza A virus, UniProt Q194T2); type: functional, Influenza A virus (A/California/07/2009(H1N1))
Nonstructural protein 1, sequence (Q194T2 whole entry): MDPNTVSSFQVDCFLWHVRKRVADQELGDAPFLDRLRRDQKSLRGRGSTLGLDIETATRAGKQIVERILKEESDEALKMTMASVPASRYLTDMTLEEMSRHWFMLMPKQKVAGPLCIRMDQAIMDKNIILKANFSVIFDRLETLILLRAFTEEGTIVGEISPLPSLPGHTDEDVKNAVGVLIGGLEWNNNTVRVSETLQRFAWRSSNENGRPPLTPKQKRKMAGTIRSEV

[5] = molecular target: Eukaryotic translation initiation factor 4E (Mus musculus, UniProt P63073); assay: blockers of eIF4G binding by eIF4E – biochemical, TR-FRET, dose response (AID 855); type: functional;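 also: potency for disrupting eIF4E binding to eIF4GI seen as loss of FRET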
Eukaryotic translation initiation factor 4E, sequence (P63073 whole entry): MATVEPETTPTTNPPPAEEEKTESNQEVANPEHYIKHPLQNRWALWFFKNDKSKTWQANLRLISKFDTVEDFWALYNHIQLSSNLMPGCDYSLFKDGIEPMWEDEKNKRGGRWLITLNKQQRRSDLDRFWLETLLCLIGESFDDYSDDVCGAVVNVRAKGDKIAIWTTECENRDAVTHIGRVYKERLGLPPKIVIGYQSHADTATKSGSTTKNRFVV

[6] = molecular target: T1, Coagulation factor XII (Homo sapiens, UniProt P00748); type: functional;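 also: activated factor XIIa alpha cleaving a fluorogenic AMC peptide substrate; inhibitor potency from loss of enzyme activity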
T1 sequence (P00748 whole entry): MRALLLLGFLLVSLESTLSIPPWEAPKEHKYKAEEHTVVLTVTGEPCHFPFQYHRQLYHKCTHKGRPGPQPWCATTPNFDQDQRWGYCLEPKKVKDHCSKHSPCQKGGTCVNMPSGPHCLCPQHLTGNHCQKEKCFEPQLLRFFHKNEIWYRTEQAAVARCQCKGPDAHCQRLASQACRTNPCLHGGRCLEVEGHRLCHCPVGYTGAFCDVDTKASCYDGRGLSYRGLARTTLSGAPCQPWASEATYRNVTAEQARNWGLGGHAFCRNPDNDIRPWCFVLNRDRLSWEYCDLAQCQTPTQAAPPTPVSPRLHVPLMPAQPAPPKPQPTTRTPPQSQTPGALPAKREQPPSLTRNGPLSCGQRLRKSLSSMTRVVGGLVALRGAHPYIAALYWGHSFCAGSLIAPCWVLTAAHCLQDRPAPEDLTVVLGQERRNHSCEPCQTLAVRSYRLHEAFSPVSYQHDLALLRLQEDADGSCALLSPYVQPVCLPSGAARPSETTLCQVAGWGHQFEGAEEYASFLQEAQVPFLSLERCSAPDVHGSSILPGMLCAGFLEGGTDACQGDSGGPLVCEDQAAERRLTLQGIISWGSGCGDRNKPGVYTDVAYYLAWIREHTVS

[7] = viability of uninfected HEp-2 cells – cell-based, HTS, cytotoxicity control for RSV inhibitor project, dose response (AID 2410); type: functional; settings: human respiratory syncytial virus
[8] = cells
[9] = molecular target: T2, Aminopeptidase N (Plasmodium falciparum FcB1/Columbia, UniProt O96935); assay: malaria alanyl aminopeptidase activity blockers – biochemical, fluorogenic H-Leu-NHMec substrate, 1536-well (AID 1445); design: species or system Plasmodium falciparum 3D7, 3D7
T2 sequence (O96935 whole entry): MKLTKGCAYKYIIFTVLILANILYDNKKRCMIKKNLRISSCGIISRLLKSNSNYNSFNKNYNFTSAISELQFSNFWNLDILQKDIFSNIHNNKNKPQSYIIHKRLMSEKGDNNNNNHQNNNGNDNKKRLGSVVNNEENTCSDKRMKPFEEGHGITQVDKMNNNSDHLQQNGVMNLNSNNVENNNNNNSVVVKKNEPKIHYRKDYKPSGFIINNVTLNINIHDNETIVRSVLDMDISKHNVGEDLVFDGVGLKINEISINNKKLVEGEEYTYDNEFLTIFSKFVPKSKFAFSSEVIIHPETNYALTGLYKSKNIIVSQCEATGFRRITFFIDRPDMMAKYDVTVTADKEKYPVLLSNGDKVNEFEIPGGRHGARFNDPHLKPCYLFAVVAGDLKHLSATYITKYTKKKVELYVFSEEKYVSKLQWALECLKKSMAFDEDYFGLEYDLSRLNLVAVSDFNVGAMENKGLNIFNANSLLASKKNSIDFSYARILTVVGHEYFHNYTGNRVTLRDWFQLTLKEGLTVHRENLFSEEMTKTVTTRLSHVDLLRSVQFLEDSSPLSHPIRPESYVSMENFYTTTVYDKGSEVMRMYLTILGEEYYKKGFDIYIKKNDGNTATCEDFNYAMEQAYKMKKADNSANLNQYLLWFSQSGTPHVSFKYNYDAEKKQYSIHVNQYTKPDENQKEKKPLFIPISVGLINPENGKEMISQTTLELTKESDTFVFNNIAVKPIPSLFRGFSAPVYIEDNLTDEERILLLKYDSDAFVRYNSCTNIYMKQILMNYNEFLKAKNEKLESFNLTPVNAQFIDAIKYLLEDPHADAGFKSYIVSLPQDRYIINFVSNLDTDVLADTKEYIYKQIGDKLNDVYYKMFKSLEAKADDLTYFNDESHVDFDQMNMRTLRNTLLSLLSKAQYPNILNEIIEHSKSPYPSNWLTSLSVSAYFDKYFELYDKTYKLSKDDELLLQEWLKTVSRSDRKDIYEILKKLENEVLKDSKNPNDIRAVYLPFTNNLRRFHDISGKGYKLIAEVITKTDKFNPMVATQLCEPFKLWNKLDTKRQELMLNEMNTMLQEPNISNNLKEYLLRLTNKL

[10] = microbe, parasite or virus in culture; type: functional; settings: Mycobacterium tuberculosis
[11] = test system: Streptococcus sp. 'group A'; assay: Streptococcus pyogenes SK(-)GAS viability under kanamycin – luminescence, BacTiterGlo, confirmation, counter-screen for streptokinase expression inhibitor project, dose response (AID 1900); type: functional, organism-based
[12] = molecular target: T3, Streptokinase A (Streptococcus pyogenes serotype M1, UniProt P10520); assay: viability-normalized secreted streptokinase activity reduction – plasminogen activation absorbance, OD405, dose response (AID 1914); type: functional, Streptococcus pyogenes M1 GAS;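 also: secreted streptokinase activity via plasminogen activation per viability signal from cell pellet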
T3 sequence (P10520 whole entry): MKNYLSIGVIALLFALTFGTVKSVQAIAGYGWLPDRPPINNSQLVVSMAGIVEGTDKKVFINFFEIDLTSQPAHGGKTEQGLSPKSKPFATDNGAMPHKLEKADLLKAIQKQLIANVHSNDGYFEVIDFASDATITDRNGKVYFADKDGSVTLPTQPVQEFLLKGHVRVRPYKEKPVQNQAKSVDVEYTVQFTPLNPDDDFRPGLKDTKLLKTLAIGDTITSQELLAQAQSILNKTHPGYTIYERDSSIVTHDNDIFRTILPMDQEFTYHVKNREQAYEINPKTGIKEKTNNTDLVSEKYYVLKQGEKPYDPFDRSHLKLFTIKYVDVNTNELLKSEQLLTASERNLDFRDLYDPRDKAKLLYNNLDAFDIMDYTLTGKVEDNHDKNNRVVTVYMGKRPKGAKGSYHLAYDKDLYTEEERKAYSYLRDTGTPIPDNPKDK

[13] = test system: Streptococcus; assay: GAS UMAA2166 growth inhibition – luminescence, BacTiterGlo, counter-screen for streptokinase expression inhibitor project, dose response (AID 1915); type: functional, organism-based;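 also: potency for reduction of bacterial viability or growth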
[14] = molecular target: Induced myeloid leukemia cell differentiation protein Mcl-1 (Homo sapiens, UniProt Q07820); type: functional
Induced myeloid leukemia cell differentiation protein Mcl-1, sequence (Q07820 whole entry): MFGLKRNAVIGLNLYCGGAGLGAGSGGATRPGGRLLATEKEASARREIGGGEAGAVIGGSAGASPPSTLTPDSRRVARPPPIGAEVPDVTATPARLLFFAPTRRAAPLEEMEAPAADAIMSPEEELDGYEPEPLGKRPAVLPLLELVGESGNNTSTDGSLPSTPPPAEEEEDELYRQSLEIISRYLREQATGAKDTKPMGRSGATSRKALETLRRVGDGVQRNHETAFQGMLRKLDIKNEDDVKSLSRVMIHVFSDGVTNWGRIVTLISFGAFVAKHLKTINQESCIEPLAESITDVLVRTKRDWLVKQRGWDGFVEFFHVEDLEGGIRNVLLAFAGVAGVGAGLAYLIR

[15] = molecular target: T4, Fatty acid synthase (Homo sapiens, UniProt P49327); assay: inhibition of human FAS-TE enzyme activity – biochemical, endpoint fluorescence intensity, uHTS hits, dose response (AID 624327); type: functional;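 also: fluorescence from hydrolysis of an O-methyl fluorescein acyl ester substrate by the enzyme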
T4 sequence (P49327 whole entry): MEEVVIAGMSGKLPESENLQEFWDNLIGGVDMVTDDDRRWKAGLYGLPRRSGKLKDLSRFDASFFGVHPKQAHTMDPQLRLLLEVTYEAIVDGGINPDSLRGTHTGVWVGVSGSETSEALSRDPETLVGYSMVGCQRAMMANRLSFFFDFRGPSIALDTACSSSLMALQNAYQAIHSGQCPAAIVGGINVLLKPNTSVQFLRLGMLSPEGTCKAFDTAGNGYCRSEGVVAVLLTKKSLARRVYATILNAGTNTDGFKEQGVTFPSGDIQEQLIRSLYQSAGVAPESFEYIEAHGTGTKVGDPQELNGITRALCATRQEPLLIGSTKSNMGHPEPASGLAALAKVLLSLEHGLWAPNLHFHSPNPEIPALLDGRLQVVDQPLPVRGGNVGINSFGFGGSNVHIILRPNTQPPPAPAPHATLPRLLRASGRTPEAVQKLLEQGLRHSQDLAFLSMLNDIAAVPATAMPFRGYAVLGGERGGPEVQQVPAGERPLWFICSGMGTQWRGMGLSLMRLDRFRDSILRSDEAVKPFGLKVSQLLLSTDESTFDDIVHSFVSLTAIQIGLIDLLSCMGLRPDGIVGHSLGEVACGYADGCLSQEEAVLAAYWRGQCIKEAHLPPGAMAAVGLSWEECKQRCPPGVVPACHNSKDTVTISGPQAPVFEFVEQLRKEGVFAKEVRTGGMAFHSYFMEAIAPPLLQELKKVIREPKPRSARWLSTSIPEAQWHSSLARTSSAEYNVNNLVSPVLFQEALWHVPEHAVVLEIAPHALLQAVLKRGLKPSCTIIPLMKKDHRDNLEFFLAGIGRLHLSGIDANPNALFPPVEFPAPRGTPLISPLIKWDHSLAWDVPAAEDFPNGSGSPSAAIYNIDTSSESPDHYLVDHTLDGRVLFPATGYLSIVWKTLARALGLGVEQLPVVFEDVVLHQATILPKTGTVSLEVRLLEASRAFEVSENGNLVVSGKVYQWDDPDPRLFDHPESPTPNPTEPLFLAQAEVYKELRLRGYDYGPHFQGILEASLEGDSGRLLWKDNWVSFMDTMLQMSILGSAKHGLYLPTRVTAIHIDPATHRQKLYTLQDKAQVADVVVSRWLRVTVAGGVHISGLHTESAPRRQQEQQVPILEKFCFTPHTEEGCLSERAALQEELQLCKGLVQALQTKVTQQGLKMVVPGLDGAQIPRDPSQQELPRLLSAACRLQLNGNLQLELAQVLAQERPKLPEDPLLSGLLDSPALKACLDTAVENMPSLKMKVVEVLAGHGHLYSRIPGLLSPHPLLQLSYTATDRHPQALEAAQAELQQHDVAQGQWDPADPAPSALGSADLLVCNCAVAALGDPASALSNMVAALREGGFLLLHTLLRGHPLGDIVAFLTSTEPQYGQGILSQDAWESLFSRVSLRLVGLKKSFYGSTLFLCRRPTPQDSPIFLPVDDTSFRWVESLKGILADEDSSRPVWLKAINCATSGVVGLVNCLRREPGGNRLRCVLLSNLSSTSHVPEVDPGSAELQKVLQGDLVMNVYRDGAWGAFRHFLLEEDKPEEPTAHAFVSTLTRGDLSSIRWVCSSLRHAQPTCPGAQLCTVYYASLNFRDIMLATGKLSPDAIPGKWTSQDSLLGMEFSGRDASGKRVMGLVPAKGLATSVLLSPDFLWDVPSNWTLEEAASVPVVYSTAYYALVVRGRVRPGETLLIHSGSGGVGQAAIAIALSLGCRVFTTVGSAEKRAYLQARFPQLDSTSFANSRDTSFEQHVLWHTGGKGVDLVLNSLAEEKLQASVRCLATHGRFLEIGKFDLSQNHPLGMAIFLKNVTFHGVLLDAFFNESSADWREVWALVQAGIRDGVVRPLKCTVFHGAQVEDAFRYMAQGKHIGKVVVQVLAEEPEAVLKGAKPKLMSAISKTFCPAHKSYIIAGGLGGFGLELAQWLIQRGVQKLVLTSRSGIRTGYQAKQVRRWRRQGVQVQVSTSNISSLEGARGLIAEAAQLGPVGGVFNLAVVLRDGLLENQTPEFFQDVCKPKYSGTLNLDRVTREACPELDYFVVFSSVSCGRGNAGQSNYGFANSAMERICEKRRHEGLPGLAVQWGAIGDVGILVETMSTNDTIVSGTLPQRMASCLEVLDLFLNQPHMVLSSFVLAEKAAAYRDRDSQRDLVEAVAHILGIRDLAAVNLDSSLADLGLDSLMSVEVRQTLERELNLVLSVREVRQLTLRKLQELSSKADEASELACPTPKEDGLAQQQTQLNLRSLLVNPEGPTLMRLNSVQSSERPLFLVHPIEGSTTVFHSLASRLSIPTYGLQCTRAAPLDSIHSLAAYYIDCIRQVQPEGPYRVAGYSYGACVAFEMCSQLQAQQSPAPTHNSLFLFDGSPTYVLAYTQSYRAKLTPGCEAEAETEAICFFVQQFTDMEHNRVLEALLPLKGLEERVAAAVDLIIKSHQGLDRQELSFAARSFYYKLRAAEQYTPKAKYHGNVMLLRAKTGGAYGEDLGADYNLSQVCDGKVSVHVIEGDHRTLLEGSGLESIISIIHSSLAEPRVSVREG

[16] = molecular target: T4, Fatty acid synthase; assay: inhibition of human FAS-TE enzyme activity – biochemical, kinetic fluorescence intensity, dose response (AID 624326); type: functional;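 also: rate of fluorescence rise from hydrolysis of a fluorogenic O-methyl fluorescein ester substrate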
[17] = luciferase reporter signal suppression in cells – H4 neuroglioma cells, luminescence, dose response (AID 1990); type: functional, cell-based
[18] = Luminescence Cell-Based Dose Response HTS to Identify Inhibitors of 5'UTR Stem-Loop Driven Prion Protein mRNA Translation in H4 Neuroglioblastoma Cells. [Related pubchem assays: 1827 (Project Summary), 1813 (Primary HTS)]; type: functional
[19] = alpha-synuclein stem-loop luciferase translation blockers – H4 neuroglioma cells, luminescence, confirmation (AID 1988); type: functional, cell-based

Structure (SMILES): C[n+]1c(/C=C/c2ccc(O)cc2)ccc2ccccc21
- EC50 [1]: 12.5 µM (active)
- EC50 [2]: 5.65 µM (active)
- EC50 [3]: 7.6 µM (active)
- IC50 [4]: > 100 µM (active)

Structure (SMILES): Cc1ccc(S(=O)(=O)N2CCN(C(C)C(=O)Nc3ccccc3-c3ccccc3)CC2)cc1 (configuration not stated)
- IC50 [5]: > 64 µM (inactive)

Structure (SMILES): O=C(COC(=O)c1ccccc1Br)Nc1ccc(F)cc1
- IC50 [6]: > 50 µM (inactive)

Structure (SMILES): Cc1ccc(O)c(NC(=S)NC(=O)Cc2ccc(Cl)cc2)c1
- CC50 [7]: 29.4 µM (active)
- IC50 [8]: 23.4 µM (active)

Structure (SMILES): COc1ccc(CN(C(=O)c2snc(C(N)=O)c2N)C(C(=O)NC(C)(C)C)c2ccco2)cc1 (configuration not stated)
- IC50 [6]: > 50 µM (inactive)

Structure (SMILES): COc1ccc(C(C)=O)cc1CSc1nc2cc(C(=O)O)ccc2c(=O)n1Cc1ccccc1
- IC50 [9]: 83.5 µM (active)

Structure (SMILES): C#CCCOC(=O)N1C2=NC(C(=O)OC)=C(C(=O)OC)[C@@H]3N(CC=C)c4ccccc4[C@]23C[C@H]1C(=O)OC
- IC50 [9]: 58.5 µM (active)

Structure (SMILES): CC(C1CC2CCC1C2)N1CC(=O)C(c2nc3ccccc3[nH]2)=C1N (configuration not stated)
- IC50 [6]: > 50 µM (inactive)

Structure (SMILES): Cc1ccc(S(=O)(=O)N(C)CCCC(=O)Nc2cc(C)ccc2C)cc1
- IC50 [4]: 22.9 µM (active)

Structure (SMILES): Cc1nn(-c2ccccc2)c2c1C(c1ccc([N+](=O)[O-])cc1)N1C(=N2)C(=O)Nc2ccccc21 (configuration not stated)
- CC50 [7]: 34.8 µM (active)
- CC50 [10]: 39.3 µM (active)
- IC50 [8]: 31.5 µM (active)

Structure (SMILES): Oc1c(C(c2cccs2)N2CCN(c3ccccc3)CC2)ccc2cccnc12 (configuration not stated)
- IC50 [5]: > 64 µM (inactive)

Structure (SMILES): Cc1cc(Br)c2[nH]c3c(c2c1)CCCC3=O
- IC50 [6]: > 50 µM (inactive)

Structure (SMILES): COc1ccc(OCC(=O)N2CC3(C)CC2CC(C)(C)C3)cc1 (configuration not stated)
- IC50 [5]: > 64 µM (inactive)

Structure (SMILES): CC(=O)C1=C(C)NC(SCc2ccc(C#N)cc2)=C(C#N)C1c1ccco1 (configuration not stated)
- IC50 [5]: > 64 µM (inactive)

Structure (SMILES): CC1(C)Oc2ccc3ccc(=O)oc3c2C(/C=N/NC(N)=S)=C1O
- EC50 [11]: 3.2 µM (active)
- EC50 [12]: > 150 µM (not active)
- EC50 [13]: 22.8 µM (active)
- IC50 [4]: 26.6 µM (active)

Structure (SMILES): COc1cc(/C=N/NC(=O)C(Cc2c[nH]c3ccccc23)NC(=O)OCc2ccccc2)cc([N+](=O)[O-])c1O (configuration not stated)
- IC50 [9]: 4.75 µM (active)
- IC50 [14]: 6.11 µM (active)
- IC50 [15]: 5.95 µM (active)
- IC50 [16]: 8.12 µM (active)

Structure (SMILES): CC1(C)OC(=C/C=N/c2ccc(Cl)cc2)OC1(C)C
- EC50 [17]: > 120 µM (not active)
- EC50 [18]: > 120 µM (not active)
- EC50 [19]: > 120 µM (not active)
- IC50 [6]: > 50 µM (inactive)
